A word on the IC50: it is the concentration needed to halve the response being measured.

One series concerns the target T1, UGT1A3 (Homo sapiens, UniProt P35503).
T1 sequence (P35503 29-534): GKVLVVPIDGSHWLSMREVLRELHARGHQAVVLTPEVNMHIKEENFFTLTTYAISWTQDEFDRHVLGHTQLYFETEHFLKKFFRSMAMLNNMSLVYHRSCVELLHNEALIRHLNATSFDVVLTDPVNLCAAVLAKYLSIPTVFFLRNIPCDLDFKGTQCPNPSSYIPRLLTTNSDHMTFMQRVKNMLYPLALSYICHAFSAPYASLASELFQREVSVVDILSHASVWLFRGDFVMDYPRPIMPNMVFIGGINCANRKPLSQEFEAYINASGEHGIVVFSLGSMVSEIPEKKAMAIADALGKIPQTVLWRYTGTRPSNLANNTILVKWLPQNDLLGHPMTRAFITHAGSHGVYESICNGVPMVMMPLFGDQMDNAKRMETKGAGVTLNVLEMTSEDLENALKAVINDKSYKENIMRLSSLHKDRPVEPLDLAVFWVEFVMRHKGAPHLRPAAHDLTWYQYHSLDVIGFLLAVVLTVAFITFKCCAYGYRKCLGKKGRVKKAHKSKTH

The next series deals with T2, UGT1A1 (Homo sapiens, UniProt P22309).
T2 sequence (P22309 26-533): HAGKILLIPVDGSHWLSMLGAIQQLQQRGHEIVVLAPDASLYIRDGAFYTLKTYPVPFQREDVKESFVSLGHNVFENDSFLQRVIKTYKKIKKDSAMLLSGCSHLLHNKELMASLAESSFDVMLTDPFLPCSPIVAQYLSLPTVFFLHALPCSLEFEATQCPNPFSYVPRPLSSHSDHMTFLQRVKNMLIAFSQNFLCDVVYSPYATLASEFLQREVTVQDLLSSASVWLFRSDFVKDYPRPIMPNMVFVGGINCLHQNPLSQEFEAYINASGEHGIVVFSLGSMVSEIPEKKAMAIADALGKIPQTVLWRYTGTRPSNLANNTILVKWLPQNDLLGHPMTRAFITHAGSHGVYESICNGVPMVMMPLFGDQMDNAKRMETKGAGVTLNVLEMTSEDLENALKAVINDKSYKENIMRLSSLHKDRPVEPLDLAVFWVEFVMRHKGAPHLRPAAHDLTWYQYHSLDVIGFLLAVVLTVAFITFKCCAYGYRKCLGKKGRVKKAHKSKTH
The series can be described thus: Ki determination on UGT1A1 activity (β-estradiol-3-glucuronidation) in human liver microsomes. Conditions: Dixon plots / nonlinear regression. Here is the method:
Based on the lowest IC50 value, the inhibitor constant (Ki) values of the βC for UGT1A1 were determined. […] All incubations were performed in triplicate, and the mean values were used for the analysis. Other procedures were similar to those of the reversible inhibition studies.
(§1) For visual inspection, data were presented as Dixon plots.
On the technique in general: Liver microsomes are vesicles of endoplasmic reticulum, rich in cytochrome P450 enzymes.

The next series has as its target T3, UGT1A4 (Homo sapiens, UniProt P22310).
T3 construct: pooled human liver microsomes (final concentration 0.25 mg/mL); tissue Corning Life Sciences; host or cells: pooled human liver microsomes, 150 donors
T3 sequence (P22310 29-534): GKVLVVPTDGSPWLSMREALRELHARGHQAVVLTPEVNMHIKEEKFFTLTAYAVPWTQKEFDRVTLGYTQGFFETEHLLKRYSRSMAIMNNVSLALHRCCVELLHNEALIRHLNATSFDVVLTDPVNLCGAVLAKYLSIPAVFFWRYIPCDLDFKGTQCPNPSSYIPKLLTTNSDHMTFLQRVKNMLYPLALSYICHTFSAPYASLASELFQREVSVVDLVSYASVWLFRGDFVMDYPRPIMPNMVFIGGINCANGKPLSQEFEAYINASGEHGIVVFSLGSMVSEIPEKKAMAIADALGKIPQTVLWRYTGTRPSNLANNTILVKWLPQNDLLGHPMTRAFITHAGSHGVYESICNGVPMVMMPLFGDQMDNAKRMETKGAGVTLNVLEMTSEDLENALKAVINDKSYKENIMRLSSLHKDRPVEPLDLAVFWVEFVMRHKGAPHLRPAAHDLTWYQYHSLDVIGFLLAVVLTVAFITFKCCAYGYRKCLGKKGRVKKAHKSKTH
The experiment in a line: Inhibition of UGT1A4 (trifluoperazine-N-glucuronidation) in human liver microsomes. The series is classed as in vitro ADME. To be noted: 4 μM trifluoperazine, mean ± SD of triplicate, read-out: IC50 towards UGT1A4.

Another series has as its target T4, UGT2B7 (Homo sapiens, UniProt P16662).
T4 sequence (P16662 24-529): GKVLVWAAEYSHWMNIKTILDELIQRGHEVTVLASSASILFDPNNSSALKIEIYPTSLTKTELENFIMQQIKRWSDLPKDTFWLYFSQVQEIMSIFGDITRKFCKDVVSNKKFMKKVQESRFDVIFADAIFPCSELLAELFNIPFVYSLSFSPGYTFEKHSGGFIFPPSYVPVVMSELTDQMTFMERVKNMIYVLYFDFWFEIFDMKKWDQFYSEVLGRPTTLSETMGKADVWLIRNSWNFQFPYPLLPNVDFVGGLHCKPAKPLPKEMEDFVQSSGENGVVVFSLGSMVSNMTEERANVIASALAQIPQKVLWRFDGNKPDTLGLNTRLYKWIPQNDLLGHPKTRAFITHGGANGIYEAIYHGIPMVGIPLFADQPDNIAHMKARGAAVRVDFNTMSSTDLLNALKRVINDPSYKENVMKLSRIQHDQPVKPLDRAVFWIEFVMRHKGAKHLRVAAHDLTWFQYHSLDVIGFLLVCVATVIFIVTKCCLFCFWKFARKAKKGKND
The experiment in a line: Inhibition of UGT2B7 (zidovudine-5′-glucuronidation) in human liver microsomes.

Another series deals with T5, UGT2B15 (Homo sapiens, UniProt P54855).
T5 construct: purchased Corning Life Sciences
T5 sequence (P54855 24-530): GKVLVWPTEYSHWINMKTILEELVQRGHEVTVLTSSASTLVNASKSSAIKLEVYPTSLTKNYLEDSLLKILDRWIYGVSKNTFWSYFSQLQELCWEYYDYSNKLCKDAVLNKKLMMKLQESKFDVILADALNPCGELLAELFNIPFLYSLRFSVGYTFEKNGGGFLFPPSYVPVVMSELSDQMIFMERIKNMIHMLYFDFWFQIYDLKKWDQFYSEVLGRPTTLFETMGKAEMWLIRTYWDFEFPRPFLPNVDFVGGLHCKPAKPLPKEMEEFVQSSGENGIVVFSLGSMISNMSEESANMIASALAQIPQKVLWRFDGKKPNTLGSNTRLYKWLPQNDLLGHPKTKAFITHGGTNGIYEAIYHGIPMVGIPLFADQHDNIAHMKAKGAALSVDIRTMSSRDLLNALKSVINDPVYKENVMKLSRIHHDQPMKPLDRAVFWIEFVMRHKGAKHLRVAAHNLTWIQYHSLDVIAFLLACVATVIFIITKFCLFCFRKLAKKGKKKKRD
The series can be described thus: Inhibition of UGT2B15 (4-methylumbelliferyl glucuronidation) in recombinant human UGT2B15 supersomes. The series is classed as in vitro ADME. Conditions: recombinant UGT2B15 supersomes, 250 μM 4-methylumbelliferone, mean ± SD of triplicate; read-out: IC50 towards UGT2B15. The protocol:
Although S-oxazepam is a typical substrate of UGT2B15 of human liver microsomes, authentic S-oxazepam and the corresponding glucuronide are not commercially […]. Thus, the inhibition of AS, βC, CA, LU, and ZE on the UGT2B15 activity was assessed using 4-methylumbelliferone as the nonspecific probe substrate for all UGTs except UGT1A4 [34] in recombinant human UGT2B15 supersomes.
The reaction was initiated by addition of 10 µL 5 mM UDPGA (to 100 µL total volume) followed by incubation for 120 min at 37 °C in a shaking water bath. Reactions were stopped by addition of 50 µL of ice-cold acetonitrile containing chlorpropamide (300 ng/mL) as an internal standard, and they were chilled and centrifuged (13,000 g, 15 min, 4 °C). An aliquot of 5 μL of supernatant was injected into an LC-MS/MS system. Additionally, identical parallel incubation samples containing a known UGT2B15 inhibitor amitriptyine (0–200 μM) was included as a positive control for UGT2B15.
as §1

In another series the target is T6, UGT1A9 (Homo sapiens, UniProt O60656).
T6 sequence (O60656 26-530): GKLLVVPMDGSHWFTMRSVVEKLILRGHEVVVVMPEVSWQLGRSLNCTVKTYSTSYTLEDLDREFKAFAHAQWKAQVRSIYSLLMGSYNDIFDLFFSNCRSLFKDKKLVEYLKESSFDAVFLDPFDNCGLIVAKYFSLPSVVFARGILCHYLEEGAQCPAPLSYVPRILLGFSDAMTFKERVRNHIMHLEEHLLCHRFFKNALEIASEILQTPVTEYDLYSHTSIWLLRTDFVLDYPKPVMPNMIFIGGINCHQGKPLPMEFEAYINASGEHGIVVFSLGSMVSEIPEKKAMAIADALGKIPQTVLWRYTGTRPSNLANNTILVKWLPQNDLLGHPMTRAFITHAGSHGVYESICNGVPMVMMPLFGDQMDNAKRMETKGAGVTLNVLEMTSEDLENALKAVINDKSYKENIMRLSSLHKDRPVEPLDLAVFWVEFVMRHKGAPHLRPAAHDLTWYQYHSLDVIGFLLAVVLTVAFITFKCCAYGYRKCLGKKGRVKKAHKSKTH
The series can be described thus: Inhibition of UGT1A9 (propofol-O-glucuronidation) in human liver microsomes.

Description for UGT1A3: (§2) The formation activities of β-estradiol-3-glucuronide, chenodeoxycholic acid 24-acyl-β-D-glucuronide, trifluoperazine-N-glucuronide, imipramine-N-β-D-glucuronide, serotonin-O-glucuronide, propofol-O-glucuronide, and zidovudine-5′-glucuronide were determined to probe the activities of UGT1A1, UGT1A3, UGT1A4, UGT1A6, UGT1A9 and UGT2B7, respectively, in human liver microsomes.
(§3) In brief, the 90-µL incubation mixture, including pooled human liver microsomes (final concentration 0.25 mg/mL), 100 mM Tris buffer, 25 µg/mL alamethicin, 5 mM MgCl2, the UGT-selective substrates, and five xanthophylls (0–50 μM), were pre-incubated for 30 min on ice to allow formation of alamethicin pores. Reac2345tions were initiated by the addition of 10 μL of UDPGA (5 mM) to a final reaction volume of 0.1 mL and incubated at 37 °C for 60 min (except 30 min for UGT1A9) in a shaking water bath. After incubation, each reaction was stopped by adding 50 μL of ice-cold acetonitrile containing chlorpropamide (300 ng/mL) or theophylline (30 μg/mL or 300 μg/mL) as an internal standard. The mixtures were then centrifuged (13,000 g for 15 min at 4 °C) and 5-µL aliquots of the supernatants were injected into an LC-MS/MS system. […] All incubations were performed in triplicate, and mean values were used for analysis.
(§4) Chromatographic separations were performed on an Agilent Poroshell 120 EC-C18 column (50 mm × 4.6-mm i.d.; 2.7-μm particle size; Agilent Technologies) to quantify β-estradiol-3-glucuronide (UGT1A1), chenodeoxycholic acid 24-acyl-β-D-glucuronide (UGT1A3), trifluoperazine-N-glucuronide (UGT1A4), propofol-O-glucuronide (UGT1A9), zidovudine-5′-glucuronide (UGT2B7), and 4-methylumbelliferyl glucuronide (UGT2B15); an Agilent Poroshell 120 EC-C18 column (100 × 4.6-mm i.d.; 2.7-mm particle size) was used for quantification of serotonin-O-glucuronide (UGT1A6). The isocratic mobile phase consisted of distilled water (A) and acetonitrile containing 0.1% formic acid (B) at a ratio (v/v) of 10:90 for chenodeoxycholic acid 24-acyl-β-D-glucuronide, 30:70 for trifluoperazine-N-glucuronide and zidovudine-5′-glucuronide, 50:50 for propofol-O-glucuronide and 4-methylumbelliferyl glucuronide, 65:35 for β-estradiol-3-glucuronide, and 90:10 for serotonin-O-glucuronide, at a flow rate of 0.5 mL/min. The total run time was 4.0 min per sample for each metabolite, with the exception of serotonin-O-glucuronide (6.0 min). Peak areas for all of the analytes were automatically integrated using Analyst software (version 1.5.2, Applied Biosystems, Foster City, CA, USA).
(§5) The IC50 values were calculated via nonlinear least-squares regression analysis from plots of the logarithms of inhibitor concentration vs. the residual percentages of activities after inhibition, using WinNonlin (ver. 4.0; Pharsight, Mountain View, CA, USA).
Description for UGT1A4: as §2, §3, §4, §5
Description for UGT1A9: as §2, §3, §4, §5
Description for UGT2B7: as §2, §3, §4, §5

As to `COc1cc2c(c(OC)c1OC)-c1c(cc(OC)c(OC)c1OC)C[C@H](C)[C@H](C)C2` [Deoxyschizandrin, deoxyschizandrin], on UGT1A3, the IC50 is 5.17 ± 0.7 µM. Consider `Cc1cn(-c2cc(NC(=O)c3ccc(C)c(Nc4nccc(-c5cccnc5)n4)c3)cc(C(F)(F)F)c2)cn1` [Nilotinib, nilotinib, reference compound], for which the “Mode of inhibition of UGT1A1” value on UGT1A1 was “competitive inhibition”.

With `C[C@@H]1CC[C@@]2(OC1)O[C@H]1C[C@H]3[C@@H]4CC[C@H]5C[C@@H](O)CC[C@]5(C)[C@H]4CC(=O)[C@]3(C)[C@H]1[C@@H]2C` [Hecogenin, hecogenin, reference compound], on UGT1A4, the IC50 stood at 8.07 ± 2.6 µM.

`O=C1Nc2ccc(Cl)cc2[C@@](C#CC2CC2)(C(F)(F)F)O1` [Efavirenz, efavirenz, reference compound] yielded an IC50 against UGT2B7 of 37.8 ± 2.37 µM. On to `CN(C)CCC=C1c2ccccc2CCc2ccccc21` [Amitriptyline, amitriptyline, reference compound], for which the IC50 on UGT2B15 amounted to 69.4 ± 10.6 µM. Consider `O=C(O)c1cccnc1Nc1cccc(C(F)(F)F)c1` [Niflumic acid, niflumic acid, reference compound], for which, on UGT1A9, it took 0.39 ± 0.0256 µM to reach half-maximal inhibition (IC50).

These data come from publication PMC6272861, “In Vitro Inhibition of Human UDP-Glucuronosyl-Transferase (UGT) Isoforms by Astaxanthin, β-Cryptoxanthin, Canthaxanthin, Lutein, and Zeaxanthin: Prediction of in Vivo Dietary Supplement-Drug Interactions” (Molecules, 2016).
